Experimental data reported in the supplement of paper PMC10307832.

Compound: CC(C)(C)c1cc(NC(=O)Nc2ccc(-c3cn4c(n3)sc3cc(OCCN5CCOCC5)ccc34)cc2)no1 [Quizartinib] + CS(=O)(=O)CCNCc1ccc(-c2ccc3ncnc(Nc4ccc(OCc5cccc(F)c5)c(Cl)c4)c3c2)o1 [Lapatinib] (partner 2 µM)
Assay: relative viability (nuclei count vs DMSO), 5 days (fraction); higher = more cells survive
Conditions: first compound 0.001 µM
Summary of the method: (§1)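 Relative viability is defined as nuclei in treated wells over nuclei in vehicle wells. Duplicate plates were run and medians reported. Lung cancer cell lines in 1536-well plates were dosed by pin tool one day after seeding, with one drug or with a fixed anchor-drug dose plus five library-drug doses (not always all listed) in √10 steps, and nuclei were counted after 5 days.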

In order of falling relative viability:
1. ABC-1  1.11
2. NCI-H2405  1.11
3. 201T  1.09
4. NCI-H3122  1.08
5. NCI-H596  1.06
6. SW 1573  1.03
7. NCI-H1915  0.939
8. NCI-H1755  0.909
9. NCI-H727  0.876
10. NCI-H1734  0.869
11. HCC-78  0.869
12. LK-2  0.839
13. NCI-H838  0.816
14. EMC-BAC-2  0.809
15. NCI-H1993  0.786
16. HCC-44  0.776
17. NCI-H1944  0.768
18. HARA  0.748
19. NCI-H1975  0.746
20. HOP-62  0.745
21. LOU-NH91  0.724
22. A-427  0.714
23. NCI-H2126  0.704
24. SK-LU-1  0.704
25. NCI-H1666  0.691
26. HCC-15  0.652
27. NCI-H2347  0.604
28. CAL-12T  0.587
29. NCI-H322M  0.565
30. NCI-H661  0.493
31. COR-L 105  0.362
32. NCI-H358  0.349
33. PC-14  0.271

Same assay, conditions: first compound 0.003162 µM

In order of rising relative viability:
1. PC-14  0.322
2. COR-L 105  0.388
3. NCI-H661  0.457
4. NCI-H322M  0.502
5. NCI-H358  0.516
6. HARA  0.551
7. NCI-H1666  0.634
8. NCI-H2126  0.705
9. CAL-12T  0.716
10. HCC-15  0.795
11. LOU-NH91  0.806
12. NCI-H1993  0.846
13. LK-2  0.854
14. SK-LU-1  0.867
15. NCI-H1944  0.868
16. NCI-H1975  0.894
17. HCC-78  0.901
18. NCI-H3122  0.903
19. NCI-H2347  0.923
20. NCI-H1915  0.931
21. A-427  0.938
22. EMC-BAC-2  0.94
23. HOP-62  0.957
24. NCI-H23  0.959
25. NCI-H1755  0.98
26. NCI-H596  0.985
27. HCC-44  1.02
28. 201T  1.04
29. SW 1573  1.09
30. NCI-H1734  1.1
31. NCI-H838  1.11
32. NCI-H2405  1.16

Same assay, conditions: first compound 0.01 µM

In order of falling relative viability:
1. SK-LU-1  1.3
2. NCI-H23  1.28
3. SW 1573  1.24
4. ABC-1  1.17
5. NCI-H1755  1.1
6. NCI-H1734  1.08
7. NCI-H596  1.08
8. 201T  1.07
9. NCI-H3122  1.04
10. A-427  1.04
11. LK-2  1
12. HOP-62  0.993
13. HCC-44  0.991
14. NCI-H2405  0.969
15. NCI-H2347  0.94
16. NCI-H1915  0.938
17. NCI-H727  0.929
18. HCC-15  0.859
19. NCI-H1975  0.847
20. HARA  0.827
21. EMC-BAC-2  0.823
22. LOU-NH91  0.804
23. NCI-H838  0.784
24. NCI-H2126  0.744
25. NCI-H1666  0.727
26. NCI-H1993  0.72
27. NCI-H1944  0.707
28. CAL-12T  0.667
29. NCI-H322M  0.605
30. HCC-78  0.576
31. NCI-H661  0.436
32. NCI-H358  0.412
33. COR-L 105  0.376
34. PC-14  0.306

Same assay, conditions: first compound 0.03162 µM

In order of rising relative viability:
1. PC-14  0.333
2. NCI-H1666  0.38
3. COR-L 105  0.409
4. NCI-H661  0.468
5. LOU-NH91  0.522
6. NCI-H322M  0.628
7. EMC-BAC-2  0.671
8. NCI-H838  0.675
9. CAL-12T  0.687
10. HCC-78  0.702
11. LK-2  0.723
12. NCI-H1993  0.746
13. SK-LU-1  0.774
14. HCC-15  0.791
15. NCI-H1944  0.792
16. NCI-H2126  0.801
17. NCI-H23  0.861
18. NCI-H1975  0.864
19. NCI-H1734  0.873
20. NCI-H727  0.875
21. NCI-H2405  0.934
22. NCI-H1915  0.965
23. HOP-62  0.978
24. A-427  0.998
25. SW 1573  1.01
26. ABC-1  1.02
27. NCI-H2347  1.03
28. NCI-H3122  1.05
29. 201T  1.06
30. NCI-H1755  1.07
31. HARA  1.08
32. NCI-H596  1.08
33. HCC-44  1.09

Same assay, conditions: first compound 0.1 µM

In order of falling relative viability:
1. NCI-H2405  1.3
2. ABC-1  1.29
3. SW 1573  1.21
4. NCI-H1975  1.18
5. NCI-H596  1.17
6. NCI-H2347  1.1
7. 201T  1.05
8. NCI-H1915  1.04
9. NCI-H3122  1.04
10. NCI-H1755  1.04
11. NCI-H23  1.01
12. NCI-H1734  0.998
13. A-427  0.986
14. EMC-BAC-2  0.946
15. HCC-44  0.938
16. NCI-H1993  0.891
17. HOP-62  0.888
18. NCI-H2126  0.863
19. CAL-12T  0.795
20. LOU-NH91  0.785
21. HCC-15  0.767
22. LK-2  0.761
23. HARA  0.736
24. SK-LU-1  0.725
25. NCI-H727  0.725
26. NCI-H1944  0.721
27. HCC-78  0.703
28. NCI-H661  0.691
29. NCI-H322M  0.673
30. NCI-H1666  0.639
31. NCI-H838  0.605
32. NCI-H358  0.39
33. COR-L 105  0.352
34. PC-14  0.337

Compound: CC(C)(C)c1cc(NC(=O)Nc2ccc(-c3cn4c(n3)sc3cc(OCCN5CCOCC5)ccc34)cc2)no1 [Quizartinib] + C[C@@H](Oc1cc(-c2cnn(C3CCNCC3)c2)cnc1N)c1c(Cl)ccc(F)c1Cl [Crizotinib] (partner 1 µM)
Assay: as above
Conditions: first compound 0.001 µM
Summary of the method: as §1

In order of falling relative viability:
1. NCI-H1944  1.11
2. NCI-H1975  1.02
3. 201T  1
4. NCI-H596  0.971
5. ABC-1  0.922
6. NCI-H1666  0.917
7. NCI-H661  0.905
8. NCI-H1993  0.904
9. HOP-62  0.881
10. NCI-H322M  0.881
11. HARA  0.87
12. PC-14  0.839
13. NCI-H1915  0.83
14. NCI-H1755  0.819
15. NCI-H2126  0.816
16. A-427  0.808
17. HCC-15  0.798
18. SK-LU-1  0.797
19. NCI-H2405  0.791
20. COR-L 105  0.788
21. NCI-H838  0.787
22. EMC-BAC-2  0.753
23. LOU-NH91  0.747
24. NCI-H727  0.74
25. NCI-H2347  0.719
26. HCC-44  0.66
27. CAL-12T  0.652
28. SW 1573  0.611
29. NCI-H358  0.584
30. NCI-H1734  0.582
31. HCC-78  0.315
32. NCI-H3122  0.268
33. LK-2  0.186

Same assay, conditions: first compound 0.003162 µM

In order of rising relative viability:
1. LK-2  0.224
2. NCI-H3122  0.253
3. HCC-78  0.345
4. NCI-H23  0.478
5. NCI-H358  0.558
6. NCI-H1734  0.656
7. CAL-12T  0.662
8. EMC-BAC-2  0.713
9. LOU-NH91  0.715
10. COR-L 105  0.734
11. SK-LU-1  0.785
12. NCI-H2347  0.788
13. HCC-15  0.79
14. ABC-1  0.799
15. NCI-H322M  0.803
16. HCC-44  0.817
17. NCI-H1666  0.829
18. SW 1573  0.837
19. NCI-H1755  0.839
20. NCI-H1915  0.841
21. NCI-H838  0.878
22. NCI-H2405  0.89
23. PC-14  0.917
24. A-427  0.926
25. NCI-H1975  0.929
26. NCI-H1993  0.951
27. HARA  0.97
28. HOP-62  0.98
29. NCI-H2126  0.992
30. NCI-H661  0.998
31. NCI-H596  1
32. 201T  1
33. NCI-H1944  1.09

Same assay, conditions: first compound 0.01 µM

In order of rising relative viability:
1. LK-2  0.229
2. NCI-H3122  0.304
3. HCC-78  0.376
4. NCI-H23  0.514
5. NCI-H358  0.66
6. COR-L 105  0.669
7. NCI-H2347  0.704
8. CAL-12T  0.724
9. NCI-H838  0.767
10. LOU-NH91  0.771
11. HCC-15  0.817
12. SW 1573  0.823
13. NCI-H1734  0.854
14. EMC-BAC-2  0.873
15. NCI-H1915  0.905
16. NCI-H1993  0.916
17. NCI-H1975  0.922
18. HCC-44  0.927
19. NCI-H727  0.939
20. A-427  0.941
21. NCI-H2405  0.946
22. NCI-H1755  0.95
23. NCI-H322M  0.955
24. 201T  1.03
25. NCI-H661  1.07
26. PC-14  1.07
27. NCI-H1666  1.07
28. NCI-H596  1.09
29. HOP-62  1.11
30. NCI-H2126  1.12
31. NCI-H1944  1.15
32. HARA  1.17
33. ABC-1  1.22
34. SK-LU-1  1.23

Same assay, conditions: first compound 0.03162 µM

In order of falling relative viability:
1. NCI-H1944  1.21
2. HOP-62  1.11
3. HARA  1.08
4. 201T  1.02
5. NCI-H1975  0.986
6. NCI-H1915  0.983
7. NCI-H2126  0.962
8. NCI-H1993  0.952
9. NCI-H596  0.932
10. NCI-H322M  0.857
11. NCI-H1755  0.853
12. PC-14  0.814
13. A-427  0.813
14. NCI-H2405  0.803
15. SW 1573  0.803
16. HCC-15  0.802
17. SK-LU-1  0.781
18. NCI-H1666  0.777
19. NCI-H727  0.772
20. HCC-44  0.765
21. EMC-BAC-2  0.758
22. LOU-NH91  0.729
23. NCI-H838  0.691
24. NCI-H1734  0.602
25. NCI-H2347  0.585
26. ABC-1  0.527
27. COR-L 105  0.49
28. NCI-H23  0.483
29. HCC-78  0.319
30. NCI-H3122  0.279
31. LK-2  0.238
32. CAL-12T  0.202

Same assay, conditions: first compound 0.1 µM

In order of rising relative viability:
1. LK-2  0.24
2. NCI-H358  0.38
3. HCC-78  0.391
4. NCI-H1734  0.549
5. CAL-12T  0.696
6. EMC-BAC-2  0.738
7. NCI-H2347  0.762
8. HCC-15  0.81
9. PC-14  0.818
10. NCI-H661  0.856
11. HOP-62  0.86
12. COR-L 105  0.902
13. SK-LU-1  0.914
14. NCI-H1915  0.944
15. NCI-H2126  1.07
16. HARA  1.09
17. NCI-H1975  1.09
18. NCI-H1944  1.11
19. ABC-1  1.3
